Reference: patent US20110263693A1, “CELASTROL, GEDUNIN, AND DERIVATIVES THEREOF AS HSP90 INHIBITORS” (DANA-FARBER CANCER INSTITUTE, INC., priority 2006, published 2011)

Experiments:
[1] = system: HSP90 interaction with the cochaperone p23; assay: HSP90 coimmunoprecipitation, p23; type: cell-based; settings: SKBR-3 cells; celastrol 2.5 μM, 12 hr
Experimental: Geldanamycin and other HSP90 inhibitors are known to inhibit p23 association with HSP90 (Felts et al., 2003).
(§1) SKBR-3 cells were treated with vehicle, celastrol (2.5 μM, 12 hr), and PU24FCI (20 μM, 24 hr) (Vilenchik et al., 2004). Cells were lysed in 20 mM Tris HCl (pH 7.4), 25 mM NaCl, 2 mM DDT, 20 mM Na2MoO4, 0.1% NP-40, and […]. Lysates were incubated for 2 hr at 4° C., rotating, and then centrifuged at 13,000×g for 10 min. Protein (500 μg) was incubated with H9010 anti-HSP90 antibody for 1 hr at 4° C., rotating. Protein G agarose (30 μl; Upstate) was added to each sample, and samples were then incubated for 1 hr at 4° C., rotating. The beads were washed five times with 1 ml lysis buffer. Bound proteins were isolated by boiling in sample buffer. The levels of HSP90 and coimmunoprecipitating proteins were analyzed by western blot.

gedunin signature = assay: Connectivity Map query with the gedunin signature; type: cell-based, human
How it was run: (§2)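 LNCaP cells received celastrol 1.25 μM or gedunin 20 μM for 6 h. Each signature was scored by Kolmogorov–Smirnov-based connectivity against 453 build01 profiles, mostly 6 h treatments of MCF7 cells.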

HSP90-HOP interaction = assay: HSP90 coimmunoprecipitation, HOP; type: cell-based; settings: SKBR-3 cells; celastrol 2.5 μM, 12 hr
Experimental: Geldanamycin and other HSP90 inhibitors are known to inhibit p23 association with HSP90 (Felts et al., 2003). In contrast, HSP90-HOP interaction was unaltered by celastrol and other HSP90 inhibitors (FIG. 7F). Thus, celastrol inhibits the functional interactions of HSP90 and suppresses HSP90 client levels.
as §1

Raf-1 = assay: Western blot of HSP90 client Raf-1 level; type: cell-based; settings: LNCaP, 1.25 μM, 24 hours
celastrol signature = assay: Connectivity Map query with the celastrol signature; type: cell-based, human
How it was run: as §2

hERG potassium channel = hERG potassium channel (Homo sapiens, UniProt Q12809); settings: by inhibiting hERG maturation (Sun et al., 2006); cited from earlier work
hERG potassium channel, sequence (Q12809 whole entry): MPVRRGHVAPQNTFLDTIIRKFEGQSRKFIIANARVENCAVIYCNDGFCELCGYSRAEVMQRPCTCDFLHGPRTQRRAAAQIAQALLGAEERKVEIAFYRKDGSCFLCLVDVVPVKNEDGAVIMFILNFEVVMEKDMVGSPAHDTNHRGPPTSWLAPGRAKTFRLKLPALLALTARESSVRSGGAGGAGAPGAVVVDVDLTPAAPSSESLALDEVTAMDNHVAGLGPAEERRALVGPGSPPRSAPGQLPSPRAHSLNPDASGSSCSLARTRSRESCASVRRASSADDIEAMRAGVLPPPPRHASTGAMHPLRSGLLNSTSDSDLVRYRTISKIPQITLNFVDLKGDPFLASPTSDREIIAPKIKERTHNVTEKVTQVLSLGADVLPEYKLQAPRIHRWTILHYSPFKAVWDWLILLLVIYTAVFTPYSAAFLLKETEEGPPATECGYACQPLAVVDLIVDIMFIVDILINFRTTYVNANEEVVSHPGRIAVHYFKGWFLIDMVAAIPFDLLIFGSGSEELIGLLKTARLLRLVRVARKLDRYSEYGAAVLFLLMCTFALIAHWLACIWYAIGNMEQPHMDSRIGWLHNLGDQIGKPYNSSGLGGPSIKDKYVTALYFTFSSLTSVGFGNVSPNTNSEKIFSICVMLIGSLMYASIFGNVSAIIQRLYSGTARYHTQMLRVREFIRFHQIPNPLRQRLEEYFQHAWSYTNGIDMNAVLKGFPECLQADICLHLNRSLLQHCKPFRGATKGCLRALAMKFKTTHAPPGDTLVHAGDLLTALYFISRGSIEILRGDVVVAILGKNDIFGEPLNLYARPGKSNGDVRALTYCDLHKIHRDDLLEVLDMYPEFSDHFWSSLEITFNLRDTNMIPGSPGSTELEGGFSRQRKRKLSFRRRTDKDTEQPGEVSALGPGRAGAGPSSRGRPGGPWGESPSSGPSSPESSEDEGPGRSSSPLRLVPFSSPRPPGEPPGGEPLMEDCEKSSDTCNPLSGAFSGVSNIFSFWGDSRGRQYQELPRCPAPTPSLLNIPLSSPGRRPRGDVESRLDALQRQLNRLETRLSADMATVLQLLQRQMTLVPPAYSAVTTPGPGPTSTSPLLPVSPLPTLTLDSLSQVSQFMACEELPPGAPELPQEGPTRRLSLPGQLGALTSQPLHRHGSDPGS

[2] = system: mouse models of arthritis; settings: purified celastrol, 1-3 mg/kg daily; cited from earlier work

CC1=C(O)C(=O)C=C2C1=CC=C1[C@@]2(C)CC[C@@]2(C)[C@@H]3C[C@](C)(C(=O)O)CC[C@]3(C)CC[C@]12C [celastrol]
HSP90 interaction with cochaperone p23 (coimmunoprecipitation) [1]: reduced HSP90 interaction with the cochaperone p23
gedunin score (connectivity score) (gedunin signature; enrichment of the gedunin signature (20 μM gedunin at 6 hours, LNCaP) in the compound's Connectivity Map profiles, 6 hr treatment): 0.997
Connectivity Map rank of match for the gedunin signature (gedunin signature; out of 164 compounds, signature from LNCaP 20 μM, 6 hr): top match
HSP90-HOP interaction (coimmunoprecipitation) (HSP90-HOP interaction): unaltered
level of Raf-1 (Raf-1): decreases the levels
celastrol score (connectivity score) (celastrol signature; enrichment of the celastrol signature (1.25 μM celastrol at 6 h, LNCaP) in the compound's Connectivity Map profiles, 6 hr treatment): 0.85
Connectivity Map rank of match for the celastrol signature (celastrol signature; out of 164 compounds, signature from LNCaP 1.25 μM, 6 hr): fourth-ranked match
hERG potassium channel activity (hERG potassium channel): suppress hERG potassium channel activity
bioactivity in mouse models of arthritis [2]: significant bioactivity
